Where two headings read alike, the source gives them in different places.
Test system: HL60 cell line
Assay: Combination study, modulatory effect: IC50 of chemotherapy drug without and with cannabinoid-pair (72 h)
Format: cell-based
Settings: Homo sapiens, HL-60, 72 h, HL60, 72 h, read-out: IC50 for percentage cell viability
Protocol: FIG. 2. Sensitising chemotherapy action with low doses of cannabinoids. […] The effect of a low dose of CBD/THC or CBD/CBG on the activity of CYT and VIN was also assessed. IC50 values for percentage cell viability were determined by emax models.
Cytarabine (CYT), (Sigma) and vincristine (VIN), (Sigma) were reconstituted in PBS at a stock concentration of 10 mM, and kept at −20° C. for no more than four weeks.
The ability of cannabinoids to modify the efficacy CYT and VIN was studied by assessing and comparing the IC50 of the anti-leukaemia drugs in the absence and presence of the cannabinoids.
The cannabinoids tested were CBD+CBG and CBD+THC, and these were used at a single total sub-optimal concentration of 1 μM in CEM and 5 μM HL60.
Drugs were added (CYT and VIN over a range of concentrations) and cell number determined after 72 h.
The ability of a sub-effective concentration of cannabinoid to alter the efficacy of CYT or VIN was determined by comparing the IC50s of the chemotherapy agents in the absence or presence of the cannabinoid-pair.

## Nc1ccn([C@@H]2O[C@H](CO)[C@@H](O)[C@@H]2O)c(=O)n1 [cytarabine, Cytarabine]
CBD+CBG added (sub-optimal total 5 μM in HL60)
  IC50: 150 nM
CBD+THC added (sub-optimal total 5 μM in HL60)
  IC50: 8 nM
Chemotherapy drug alone
  IC50: 100 nM
